Literature values, collected in patent publication US20120202218A1, “DETECTION METHOD AND DEVICE BASED ON NANOPARTICLE AGGREGATION” (MODPRO AB, priority 2008, published 2012).

How the values were obtained:
Fab57P = settings: binding to Fab57P, literature
[1] = neutral pH

Row | Substance | Kd (Fab57P) [nM] | net charge [1]
1 | H-CRGTGSYNRSSFESSSGLV-NH2 [C-pTMVP] | ~1 | 
2 | H2N-NAADLEKAIEALEKHLEAKGPCDAAQLEKQLEQAFEAFERAG-COOH (H-NAADLEKAIEALEKHLEAKGPCDAAQLEKQLEQAFEAFERAG-OH) [JR2EC] |  | −5
